# Test results published in patent US20080234130A1, “Compositions providing tolerance to multiple herbicides and methods of use thereof” (priority 2005, published 2008).
# Tests used:
# control maize = assay: Postemergence herbicide spray at V2, injury evaluated 10-14 days after application; type: in vivo; conditions: tribenuron, chlorimuron, imazapyr 200 g ai/ha, metsulfuron-methyl 0.5 oz ai/ac or 35 g ai/ha, 10-14 days after spray
# [1] = tested on: heterozygous GAT-HRA corn; assay: Postemergence effect of ALS herbicides, glyphosate and glufosinate (fresh weight, visual injury); conditions: 200 g/ha (glyphosate 3472 g ae/ha, glufosinate ammonium 1870 g/ha), mean of four replications; for % Visual Injury Heterozygous GAT-HRA: 2 weeks after treatment, 0% no injury, 100% plant death; for Fresh Weight (g) Heterozygous GAT-HRA: applied two weeks after planting, fresh shoots 2 weeks after treatment, untreated 98.8 g
# [2] = tested on: parent elite stiff stalk inbred corn; assay: as above; conditions: 200 g/ha (glyphosate 3472 g ae/ha, glufosinate ammonium 1870 g/ha), mean of four replications; for % Visual Injury Parent elite stiff stalk inbred: 2 weeks after treatment, 0% no injury, 100% plant death; for Fresh Weight (g) Parent elite stiff stalk inbred: applied two weeks after planting, fresh shoots 2 weeks after treatment, untreated 76.4 g
# [3] = tested on: parent elite stiff stalk inbred corn; assay: Preemergence effect of ALS herbicides (fresh weight, visual injury); conditions: 200 g/ha, mean of four replications; for % Visual Injury Patent elite stiff stalk inbred: 4 weeks after treatment, 0% no injury, 100% plant death; for Fresh Weight (g) patent elite stiff stalk inbred: fresh shoots 4 weeks after treatment, untreated 36.7 g
# [4] = tested on: heterozygous GAT-HRA corn; assay: as above; conditions: 200 g/ha, mean of four replications; for % Visual Injury Heterozygous GAT-HRA: 4 weeks after treatment, 0% no injury, 100% plant death; for Fresh Weight (g) Heterozygous GAT-HRA: fresh shoots 4 weeks after treatment, untreated 47.0 g
# GAT-HRA maize = assay: Postemergence herbicide spray at V2, injury evaluated 10-14 days after application
# Experimental: GAT-HRA maize plants were evaluated for tolerance to glyphosate and other herbicides. One protocol used in this evaluation was as follows. At the V2 stage (Ritchie and Hanway (1982), “How a corn plant develops” Spec. Rep. 48. (Coop. Ext. Ser., Iowa State Univ., Ames, Iowa)), plant heights were measured and herbicides were applied by spray application. Ten to fourteen days after the spray application, the transgenic plants were evaluated for injury symptoms and measured for plant height again in order to determine plant growth rates.
# Plants were then evaluated at various times after treatment, such as 10 or 14 days after treatment. […] Leaf samples were taken from GAT-HRA plants and used in quantitative PCR analysis and other analyses to determine the number and arrangement of copies of the GAT and HRA polynucleotides that had been integrated into the plant genome.
# Other protocols for evaluation included treatment with imidazolinone herbicides, such as the commercial herbicide Lightning® (a combination of imazapyr and imazethapyr), which was applied to GAT-HRA maize at the V2 leaf stage at four times the field label rate (250 g ai/ha). […] Another protocol for evaluation included treatment with imidazolinone herbicides as well as sulfonylurea and glyphosate herbicides. In these tests, GAT-HRA maize was treated with various combinations of Lightning® (imazapyr and imazethapyr), Basis® (rimsulfuron and thifensulfuron-methyl) and WeatherMAX® (glyphosate potassium salt). These herbicides were applied at the V2 stage as follows: Lightning® at twice the field label rate (1.8 oz ai/ac (133 ml ai/ha)), Basis® at twice the field label rate (0.5 oz ai/ac (36.9 ml ai/ha)) and WeatherMax® at four times the field label rate (43 oz ai/ac). Fourteen days after the treatment application, the plants were evaluated. […] “Field label rate” refers to the application rate specified on the product label. Where the application rate for a particular situation is a range of rates, as used herein, the term “field label rate” indicates the upper end of that range. […]
# [5] = tested on: non-glyphosate resistant Conyza (Welgevallen-paraquat resistant); assay: Control of hairy fleabane by glyphosate, metsulfuron-methyl and two additives (Table 24); type: in vivo, Conyza bonariensis
# Experimental: This example included the same treatments as used in Example 11, except the treatments were carried out on a glyphosate sensitive biotype of Kleinskraalhans (Conyza bonariensis).
# • Biotype: Non-glyphosate resistant Conyza (Welgevallen-paraquat resistant) • Growth Stage: 10-15 leaf stage • Conditions: Cool and sunny • Volume rate: 200 L ha^−1 • glyphosate (ROUNDUP): 360 g a.i. L^−1
# [6] = tested on: non-glyphosate resistant ryegrass (70-04); assay: Control of ryegrass by glyphosate, metsulfuron-methyl and two additives (Table 23); type: in vivo
# Experimental: The example was conducted on non-glyphosate resistant ryegrass. As provided in Table 23, all treatments that included glyphosate [180 g a.i. L ha^−1 (0.5 L glyphosate (SCAT®))] plus metsulfuron-methyl (BRUSH-OFF®) (5 and 10 g ha^−1) gave 100% control of the ryegrass.
# • Biotype: non-glyphosate resistant ryegrass (70-04) • Population profile: Rup 0.25 control (%) 6.25 • Rup 0.5 control (%) 81.25 • Rup 1.0 control (%) 93.75 • Growth Stage: 5-6 leaf stage • Conditions: hot and sunny • Volume rate: 200 L ha^−1
# [7] = tested on: GAT-HRA transgenic cotton plants; assay: Greenhouse over the top herbicide spray of cotton; type: in vivo, Gossypium hirsutum; conditions: rimsulfuron 16 g active ingredient/hectare over the top after glyphosate 1.5 lb ae/acre; 14 days after rimsulfuron, 28 days after glyphosate
# Description: (§1) Transformed cotton plants were rooted and then transferred to soil for further growth. Plants were then subjected to herbicide spray treatments in a greenhouse. […] Untransformed Coker 312 control plants were dead 2 weeks after glyphosate application. […] Plants transformed with both GAT and HRA were further subjected to an “over the top” application of the sulfonylurea herbicide rimsulfuron at a rate of 16 g active ingredient/hectare. […] In further experiments 32 g ai/ha rimsulfuron were applied to the cotton.
# [8] = tested on: untransformed Coker 312 cotton; assay: Greenhouse over the top herbicide spray of cotton; type: in vivo, Gossypium hirsutum; conditions: rimsulfuron 16 g active ingredient/hectare, even in the absence of glyphosate
# Description: as §1
# [9] = tested on: non-transgenic control soybeans; assay: Postemergence greenhouse spray of soybeans, visual injury (Table 11); conditions: tribenuron-methyl 35 g/ha
# Experimental: Young regenerated transgenic plants were sprayed with 1× glyphosate (1× rate of glyphosate is 1120 g/ha of glyphosate isopropylamine) to cull segregants. Four replications were performed for each treatment. Plants were then treated with various herbicides, including glyphosate and ALS-inhibitor herbicides.
# Six soybean seeds from each variety to be assayed were planted 1 cm deep in 5.5 (13.97 cm) inch square plastic container of a synthetic growth medium. […] When possible, containers were thinned to two uniform plants. Non-transgenic lines were thinned to two uniform plants per container.
# Results are expressed below in Table 11 as the mean of four replications.
# [10] = Trial 2: metsulfuron-methyl (BRUSH-OFF) 5 g/ha
# [11] = Trial 3: metsulfuron-methyl (BRUSH-OFF) 10 g/ha
Compound,"damage from the treatment, control maize (control maize)",% Visual Injury Heterozygous GAT-HRA [1] [%],Fresh Weight (g) Heterozygous GAT-HRA [1] [g],% Visual Injury Parent elite stiff stalk inbred [2] [%],Fresh Weight (g) Parent elite stiff stalk inbred [2] [g],% Visual Injury Patent elite stiff stalk inbred [3] [%],Fresh Weight (g) patent elite stiff stalk inbred [3] [g],% Visual Injury Heterozygous GAT-HRA [4] [%],Fresh Weight (g) Heterozygous GAT-HRA [4] [g],"damage from the treatment, GAT-HRA maize (GAT-HRA maize; postemergence spray at V2, tribenuron (Express), chlorimuron (Classic), imazapyr (Arsenal) 200 g ai/ha, metsulfuron-methyl (Ally) 0.5 oz ai/ac or 35 g ai/ha, 10-14 days after spray)","damage from the treatment, GAT-HRA maize (GAT-HRA maize; in vivo)","Control (%) [5, 10] [%]","Control (%) [5, 11] [%]","Control (%) [6, 10] [%]","Control (%) [6, 11] [%]",transgenic plants with no deleterious symptoms from the dual herbicide application [7],damage of untransformed Coker 312 plants [8],effect on non-transgenic control soybeans [9]
"CCOC(=O)c1ccccc1S(=O)(=O)NC(=O)Nc1nc(Cl)cc(OC)n1 [Chlorimuron-ethyl, ethyl 2-[[[[(4-chloro-6-methoxy-2-pyrimidinyl)amino]carbonyl]amino]sulfonyl]-benzoate]",severely damaged or killed,15,95.5,93,10.1,100,9.3,10,39.4,no significant damage,–,–,–,–,–,–,–,–
CC(C)C1(C)N=C(c2ncccc2C(=O)O)NC1=O (stereo not shown) [Imazapyr],severely damaged or killed,1,–,100,–,99,–,30,–,–,no significant damage,–,–,–,–,–,–,–
COC(=O)c1ccccc1S(=O)(=O)NC(=O)Nc1nc(C)nc(OC)n1 [Metsulfuron-methyl (BRUSH-OFF ®)],–,–,–,–,–,–,–,–,–,–,–,100,100,0,0,–,–,–
"COC(=O)c1ccccc1S(=O)(=O)NC(=O)Nc1nc(C)nc(OC)n1 [Metsulfuron-methyl, methyl 2-[[[[(4-methoxy-6-methyl-1,3,5-triazin-2-yl)amino]carbonyl]amino]sulfonyl]benzoate]",severely damaged or killed,14,–,100,–,100,–,0,–,–,no significant damage,–,–,–,–,–,–,–
"CCS(=O)(=O)c1cccnc1S(=O)(=O)NC(=O)Nc1nc(OC)cc(OC)n1 [Rimsulfuron, N-[[(4,6-dimethoxy-2-pyrimidinyl)amino]carbonyl]-3-(ethylsulfonyl)-2-pyridinesulfonamide]",–,10,–,91,–,74,–,0,–,–,–,–,–,–,–,approximately 35%,severe damage,–
"COC(=O)c1ccccc1S(=O)(=O)NC(=O)N(C)c1nc(C)nc(OC)n1 [Tribenuron-methyl, methyl 2-[[[[N-(4-methoxy-6-methyl-1,3,5-triazin-2-yl)-N-methylamino]carbonyl]-amino]sulfonyl]benzoate]",–,8,–,100,–,66,–,25,–,–,–,–,–,–,–,–,–,killed by the treatment
"COc1cc(OC)nc(NC(=O)NS(=O)(=O)c2ncccc2OCC(F)(F)F)n1 [Trifloxysulfuron Na^+, N-[[(4,6-dimethoxy-2-pyrimidinyl)amino]-carbonyl]-3-(2,2,2-trifluoroethoxy)-2-pyridinesulfonamide]",–,29,86.6,100,1.0,100,0.0,0,50.8,–,–,–,–,–,–,–,–,–
COC(=O)c1cccc(C)c1S(=O)(=O)NC(=O)Nc1nc(OCC(F)(F)F)nc(N(C)C)n1 [Triflusulfuron-methyl],–,8,110.9,100,2.1,100,26.3,5,53.5,–,–,–,–,–,–,–,–,–
Imazamethabenz-methyl,–,16,95.0,11,66.9,61,36.2,15,48.5,–,–,–,–,–,–,–,–,–
